Here are results for four molecules from patent US6337317B1, “Antimicrobial peptides and methods of use thereof” (priority 2000, dated 2002).

Data set [1] has as its system E. coli 0111:B4 LPS induced production of IL-6 in RAW macrophages. In words: Reduction of LPS-induced IL-6 in RAW 264.7 macrophages (ELISA). It counts as cell-based, murine. As to conditions: for Inhibition of IL-6 (%): peptide 20 μg/ml, LPS 100 ng/ml, RAW 264.7, 6 hours. As for the experimental part: (§1) The ability of invention peptides to reduce LPS-induced tumor necrosis factor (TNF) production was tested in an in vitro assay. The murine macrophage cell line RAW 264.7 was obtained from American Type Culture Collection (Manassas, Va.) and grown in DMEM medium supplemented with 10% fetal calf serum. The cells were plated at a density of 10^6 cells/well in 24 well plates, incubated overnight, then washed with fresh medium. E. coli 0111 :B4 (100 ng/ml) was added at time 0 to RAW macrophages. Invention peptides […]/m were added at time 0, 30 and 60 minutes and the cells were stimulated for 6 hours. Levels of TNF and interleukin-6 (IL-6) were measured after 6 hours.

Data set [2] deals with E. coli 0111:B4 LPS induced production of TNF-α in RAW macrophages. The experiment in a line: Reduction of LPS-induced TNF-α in RAW 264.7 macrophages (ELISA). The format is cell-based, murine. As to conditions: for Inhibition of TNF-α (%): peptide 20 μg/ml, LPS 100 ng/ml, RAW 264.7, 6 hours. The method, then:
as §1

A short description of data set [3]: Dansyl polymyxin B displacement assay (binding affinity for LPS). Also on record: species or system Escherichia coli. Particulars: for Imax: maximal displacement, 100% = that observed with polymyxin B; for IC50: peptide concentration reducing bound dansyl polymyxin B (10 μM) by 50% of maximal displacement, read-out: I50. The method, then:
To determine whether invention peptides are able to interact with the LPS of Gram-negative bacterial outer membrane, the binding affinity of peptide for LPS was determined using a dansyl polymyxin B displacement assay (Moore et al. (1986) Antimicrobial Agents Chemother. 29:496-500). The assay uses dansyl polymyxin, a cationic probe that is highly fluorescent only when bound and LPS isolated from E. coli. UB1005. […] Maximal displacement of LPS was expressed as a percentage where 100% displacement of dansyl polymyxin B was taken as that observed with polymyxin B.

Data set [4] concerns Human Red Blood Cells. The experiment in a line: Hemolytic assay. It counts as cell-based. As to conditions: red blood cells. As for the experimental part: The toxicity of invention peptides can be assessed using a hemolytic assay in which the ability of the peptides to lyse human red blood cells is assessed (Zhang et al. (1999) Biochemistry 38:8102-8111; and Examples section).
Hemolytic activity of invention peptides was tested against human red blood cells. Freshly collected human blood treated with heparin was centrifuged to remove the buffy coat, and the erythrocytes thereby obtained were washed three times in saline (0.85% NaCl). Serial dilutions of the peptides in saline were prepared in round-bottomed microtiter plates using total volumes of 100 μl. Red blood cells were diluted with saline to 1/25 of a packed cell volume, and 50 μl of cells were added to each well. Plates, while rocking, were incubated at 37° C., and the concentration of the peptide required for lysis after 4 h was taken as the minimal hemolytic concentration.

Data set [5] deals with intact cells of E. coli UB1005. In words: NPN uptake assay, outer membrane permeabilization. The format is cell-based, Escherichia coli. As to conditions: peptide concentration leading to 50% of maximal increase in NPN uptake. As for the experimental part:
The outer membrane permeabilization activity of invention peptides was determined by the 1-N-phenylnapthylamine (NPN) uptake assay of Loh et al. ((1984) Antimicor. Agents Chemother. 26:546-551), using intact cells of E. coli UB1005.
(§2) The cytoplasmic membrane depolarization activity of the peptides was determined (Wu and Hancock (1999) J. Biol. Chem. 274:29-35) using the membrane potential sensitive dye 3,3-dipropylthiacarbocyanine diSC35 (28) and E. coli DC2. Bacterial cells in mid-log phase were centrifuged, washed in 5 mM HEPES, pH 7.8, and resuspended in the same buffer to an OD600 of 0.05. A stock solution of diSC35 was added to a final concentration of 0.4 μM and quenching was allowed to occur at room temperature for 20-30 min. Then KCl was added to the cell suspension to a final concentration of 100 mM to equilibrate the cytoplasmic and external K^+ concentrations. A 2-mL cell suspension was placed in a 1 cm cuvette and the desired concentration of tested peptide was added. Changes in fluorescence due to the disruption of the membrane potential in the cytoplasmic membrane were continuously recorded using a Perkin-Elmer model 650-10S spectrofluorimeter at an excitation wavelength of 622 nm and an emission wavelength of 670 nm. The concentration of peptide leading to a 50% of maximal increase in NPN uptake was recorded as the P50.
Therefore, an increase in fluorescence in the presence of a peptide indicates the ability of peptide to permeabilize the bacterial outer membrane.

Data set [6] deals with P. aeruginosa M2. In words: P. aeruginosa infection in neutropenic mouse model. Particulars: neutropenic CD-1 mice; for Mean Time to Death: 200 μg peptide intraperitoneally 30 min after infection; for Survival (%), P. aeruginosa infection: 200 μg peptide intraperitoneally, groups of 5 mice, assessed 24 to 72 hours. The format is in vivo. The method, then:
Invention peptides were assayed for their ability to protect against P. aeruginosa infection in a neutropenic mouse mode. Female CD-1 mice, made neutropenic by three injections of cyclophosphamide (see Gough et al., (1996) Infect. Immun. 64:4922-4927) were injected intraperitoneally with a 100% lethal dose of P. aeruginosa M2 (approximately 200 organisms). Thirty minutes later, mice were injected intraperitoneally with invention peptides (200 μg/100 μl) Survival was assessed 24 to 72 hours later.

Data set [7] in a line: LPS-induced endotoxemia in galactosamine-sensitized mice. It counts as in vivo. As to conditions: 200 μg peptide intraperitoneally, groups of 10 mice, up to 24 h. The method, then: Bacterial endotoxin (LPS) is highly toxic and can cause high mortality in both humans and animals when released during Gram-negative bacterial infection. Galactosamine-treated mice exposed to moderate does of endotoxin typically die from endotoxic shock within 17 hours following exposure. Invention peptides can be tested for their ability to protect mice against endotoxin-induced death (see Examples section). The anti-endotoxic activity of invention peptides also can be tested in an in vitro assay using a macrophage cell line (Gough et al. (1996) Infect. Immun. 64:4922-4927; and Examples section).
The ability of invention peptides to protect against LPS-induced endotoxemia was assessed in vivo. Mice (8-10 weeks old) were injected intraperitoneally with […] D-galactosamine (Dgal) to sensitize them to LPS according to the method of Galanos (Galanos et al. (1979) Proc. Natl. Acad. Sci., USA, 76:5939-5943). Endotoxic shock was induces by intraperitoneal injections of 3 μg/mL E. coli 111 :B4 LPS in phosphate-buffered saline (PBS). Invention peptides (200 μg/100 μl sterile water) were injected intraperitoneally at a separate site within 10 min of LPS injection, and survival was monitored up to 24 h following injection.

Data set [8] deals with E. coli DC2. In words: Cytoplasmic membrane depolarization, diSC35 assay. The format is cell-based, Escherichia coli. As to conditions: 0.25 μg/ml (1×MIC). The method, then: The arrowhead indicates the time at which 0.25 μg/ml peptide was added. PV5: SEQ ID NO:11; PV7: SEQ ID NO:4; and PV8: SEQ ID NO:3.
as §2

Where a SMILES comes first, the peptide text is derived from it.

As for `CC(C)[C@@H]1NC(=O)[C@H](CCCNC(=N)N)NC(=O)[C@H](Cc2ccccc2)NC(=O)[C@@H](NC(=O)[C@H](Cc2c[nH]c3ccccc23)NC(=O)[C@H](CCCNC(=N)N)NC(=O)[C@@H](N)Cc2ccccc2)CSSC[C@@H](C(=O)N[C@@H](CCCNC(=N)N)C(N)=O)NC(=O)[C@H](CCCCN)NC(=O)[C@H](Cc2ccc(O)cc2)NC(=O)[C@H](CCCNC(=N)N)NC(=O)[C@@H]2CSSC[C@H](NC1=O)C(=O)N[C@@H](Cc1ccc(O)cc1)C(=O)N[C@@H](CCCCN)C(=O)NCC(=O)N[C@@H](CCCNC(=N)N)C(=O)N2` [SEQ ID NO:3, FRWCFRVCYKGRCRYKCR] (HELM PEPTIDE1{F.R.W.C.F.R.V.C.Y.K.G.R.C.R.Y.K.C.R.[am]}$PEPTIDE1,PEPTIDE1,4:R3-17:R3|PEPTIDE1,PEPTIDE1,8:R3-13:R3$$$V2.0), the “Inhibition of IL-6 (%)” value in data set [1] amounted to 70 ± 6%. Moreover, the “Inhibition of TNF-α (%)” value in data set [2] came to 55 ± 5%. Also, in data set [3], the Imax is recorded as 93% and the IC50 worked out at 4.9 µM. Moreover, in data set [4], the “hemolytic activity” value is “show hemolytic activity”. Further, in data set [5], the P50 came out at 3.9 µg/mL. Also, in data set [6], the “Mean Time to Death” value is reported as greater than 72 h and the “Survival (%), P. aeruginosa infection” value is recorded as 60%. For the same molecule, the “Survival (%), LPS-Endotoxemia” value in data set [7] is 20%.
Consider `CC(C)[C@@H]1NC(=O)[C@H](CCCNC(=N)N)NC(=O)[C@H](Cc2ccccc2)NC(=O)[C@@H](NC(=O)[C@H](Cc2c[nH]c3ccccc23)NC(=O)[C@H](CCCNC(=N)N)NC(=O)[C@@H](N)CCCNC(=N)N)CSSC[C@@H](C(=O)N[C@@H](CCCNC(=N)N)C(N)=O)NC(=O)[C@H](CCCCN)NC(=O)[C@H](Cc2ccc(O)cc2)NC(=O)[C@H](CCCNC(=N)N)NC(=O)[C@@H]2CSSC[C@H](NC1=O)C(=O)N[C@@H](Cc1ccc(O)cc1)C(=O)N[C@@H](CCCCN)C(=O)NCC(=O)N[C@@H](Cc1ccccc1)C(=O)N2` [SEQ ID NO:4, RRWCFRVCYKGFCRYKCR] (HELM PEPTIDE1{R.R.W.C.F.R.V.C.Y.K.G.F.C.R.Y.K.C.R.[am]}$PEPTIDE1,PEPTIDE1,4:R3-17:R3|PEPTIDE1,PEPTIDE1,8:R3-13:R3$$$V2.0), for which, in data set [1], the “Inhibition of IL-6 (%)” value was 77 ± 6%. Further, in data set [2], the “Inhibition of TNF-α (%)” value worked out at 61 ± 5%. Also, in data set [3], the Imax was determined as 76% and the IC50 is 5.7 µM. Also, the “hemolytic activity” value in data set [4] is given as “show hemolytic activity”. In data set [5], this molecule gave a P50 of 4.1 µg/mL. Moreover, in data set [6], the “Mean Time to Death” value amounted to 61 h and the “Survival (%), P. aeruginosa infection” value was 40%. In addition, the “Survival (%), LPS-Endotoxemia” value in data set [7] was 40%.
As to `CC(C)[C@@H]1NC(=O)[C@H](CCCNC(=N)N)NC(=O)[C@H](Cc2ccccc2)NC(=O)[C@@H](NC(=O)[C@H](Cc2c[nH]c3ccccc23)NC(=O)[C@H](CCCNC(=N)N)NC(=O)[C@@H](N)CCCNC(=N)N)CSSC[C@@H](C(=O)N[C@@H](CCCNC(=N)N)C(N)=O)NC(=O)[C@H](CCCCN)NC(=O)[C@H](CCCNC(=N)N)NC(=O)[C@H](Cc2ccc(O)cc2)NC(=O)[C@@H]2CSSC[C@H](NC1=O)C(=O)N[C@@H](Cc1ccc(O)cc1)C(=O)N[C@@H](CCCNC(=N)N)C(=O)NCC(=O)N[C@@H](CCCNC(=N)N)C(=O)N[C@@H](Cc1ccccc1)C(=O)N2` [SEQ ID NO:11, RRWCFRVCYRGRFCYRKCR] (HELM PEPTIDE1{R.R.W.C.F.R.V.C.Y.R.G.R.F.C.Y.R.K.C.R.[am]}$PEPTIDE1,PEPTIDE1,4:R3-18:R3|PEPTIDE1,PEPTIDE1,8:R3-14:R3$$$V2.0), in data set [1] (20 μg/ml), the “inhibition of IL-6 production” value was “best inhibitor”. In addition, in data set [1], the “Inhibition of IL-6 (%)” value came out at 91 ± 4%. Besides, the “inhibition of TNF-α production” value in data set [2] (20 μg/ml) was “best inhibitor”. Also, the “Inhibition of TNF-α (%)” value in data set [2] was found to be 90 ± 6%. In data set [3], the Imax worked out at 87% and the IC50 amounted to 3 µM. Further, the “hemolytic activity” value in data set [4] is recorded as “show hemolytic activity”. For the same molecule, the “diSC35 dye release from cells” value in data set [8] is “unable to cause a significant level of dye release”. In addition, the P50 in data set [5] is 3.7 µg/mL. In data set [6], the “Mean Time to Death” value is reported as 57 h and the “Survival (%), P. aeruginosa infection” value worked out at 40%. Further, the “Survival (%), LPS-Endotoxemia” value in data set [7] came to 50%.
On to Polymyxin B [reference compound], for which, in data set [3], the Imax is 100% and the IC50 came out at 5.6 µM.
